Measured values as given in publication PMC6802847, “Mutual role of ecto-5'-nucleotidase/CD73 and concentrative nucleoside transporter 3 in the intestinal uptake of dAMP” (PLoS ONE, 2019).

Columns and labels:
[1] = target: T1, ecto-5'-nucleotidase/CD73 (Homo sapiens, UniProt P21589); test: phosphate release from […] dAMP in COS-7 cells expressing CD73
T1 construct: gene NT5E
T1 sequence (P21589 27-549): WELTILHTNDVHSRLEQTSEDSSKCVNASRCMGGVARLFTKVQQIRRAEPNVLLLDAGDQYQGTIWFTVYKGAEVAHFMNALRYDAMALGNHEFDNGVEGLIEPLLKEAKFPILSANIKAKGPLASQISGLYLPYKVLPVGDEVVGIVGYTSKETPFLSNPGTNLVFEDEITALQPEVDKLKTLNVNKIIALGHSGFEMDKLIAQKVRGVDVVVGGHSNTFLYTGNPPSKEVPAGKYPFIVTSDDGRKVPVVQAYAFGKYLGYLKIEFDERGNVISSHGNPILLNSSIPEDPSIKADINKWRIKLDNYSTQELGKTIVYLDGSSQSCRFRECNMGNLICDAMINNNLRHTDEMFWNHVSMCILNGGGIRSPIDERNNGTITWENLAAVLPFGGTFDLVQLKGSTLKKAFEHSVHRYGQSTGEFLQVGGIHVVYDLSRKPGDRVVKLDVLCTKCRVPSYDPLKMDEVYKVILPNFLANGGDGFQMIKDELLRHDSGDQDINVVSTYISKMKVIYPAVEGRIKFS

[2] = target: T2, concentrative nucleoside transporter 3 (CNT3) (Homo sapiens, UniProt Q9HAS3); test: radiolabelled uptake ([…]) in COS-7 cells transiently expressing CNT3 vs empty vector; format: cell-based
T2 construct: gene SLC28A3
T2 sequence (Q9HAS3 1-691): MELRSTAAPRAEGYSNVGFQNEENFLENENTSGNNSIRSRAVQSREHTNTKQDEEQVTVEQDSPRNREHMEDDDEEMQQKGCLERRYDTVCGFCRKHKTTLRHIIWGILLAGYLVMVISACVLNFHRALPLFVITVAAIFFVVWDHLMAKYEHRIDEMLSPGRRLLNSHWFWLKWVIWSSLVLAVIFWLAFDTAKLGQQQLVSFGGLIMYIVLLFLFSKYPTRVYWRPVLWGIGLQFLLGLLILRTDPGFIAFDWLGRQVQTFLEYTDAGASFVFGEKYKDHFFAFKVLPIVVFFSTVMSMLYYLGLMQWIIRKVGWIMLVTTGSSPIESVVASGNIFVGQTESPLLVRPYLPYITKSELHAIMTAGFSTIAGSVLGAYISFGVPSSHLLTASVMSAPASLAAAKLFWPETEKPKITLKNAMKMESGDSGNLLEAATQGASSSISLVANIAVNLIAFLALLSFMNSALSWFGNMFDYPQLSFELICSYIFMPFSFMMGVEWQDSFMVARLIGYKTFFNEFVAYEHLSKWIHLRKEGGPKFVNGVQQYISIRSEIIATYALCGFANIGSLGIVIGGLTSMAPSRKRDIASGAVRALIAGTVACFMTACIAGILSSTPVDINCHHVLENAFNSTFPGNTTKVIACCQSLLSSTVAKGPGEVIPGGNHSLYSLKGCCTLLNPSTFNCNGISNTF

[3] = target: T2, concentrative nucleoside transporter 3 (CNT3); test: radiolabelled uptake ([…]) in COS-7 cells transiently expressing CNT3 vs mock; format: cell-based
[4] = substrate: Nc1ncnc2c1ncn2C1CC(O)C(CO)O1; test: cells, lysate or membranes; conditions: Na+
[5] = substrate: Nc1ncnc2c1ncn2[C@H]1C[C@H](O)[C@@H](COP(=O)(O)O)O1; test: cells, lysate or membranes; conditions: Na+

For `Nc1ncnc2c1ncn2[C@H]1C[C@H](O)[C@@H](COP(=O)(O)O)O1` [2'-deoxyadenosine 5'-monophosphate], the “phosphate release from 10 μM dAMP in COS-7 cells expressing CD73” value [1] was “the phosphate release from dAMP was significantly increased by the introduction of CD73 into COS-7 cells”.

For `Nc1ncnc2c1ncn2[C@@H]1O[C@H](COP(=O)(O)O)[C@@H](O)[C@H]1O` [Adenosine 5'-monophosphate], the “radiolabelled uptake (10 nM) in COS-7 cells transiently expressing CNT3 vs empty” value [2] was “enhanced cellular uptake of [^3H]AMP with the introduction of CNT3 alone was greater than that of [^3H]dAMP”.

`Cc1cn([C@H]2C[C@H](O)[C@@H](CO)O2)c(=O)[nH]c1=O` [thymidine] was tested, and the “radiolabelled uptake (10 nM) in COS-7 cells transiently expressing CNT3 vs mock” value [3] was “Transfection of CNT3 cDNA into COS-7 cells resulted in an increased uptake of [^3H]thymidine, a typical substrate of CNT3”.

B1: concentrative nucleoside transporter 3 (CNT3) (Homo sapiens) (protein)
chain: T2 sequence (Q9HAS3 1-691)
With B1 the Km [4] was 56.3 ± 7.0 µM and the Km [5] was 59.6 ± 3.8 µM.
